Literature values, collected in patent US5831004A, “Inhibitors of metalloproteases, pharmaceutical compositions comprising same and methods of their use” (Affymax Technologies N.V., priority 1995, dated 1998).

Molecular target: T1, human rheumatoid synovial collagenase (Homo sapiens, UniProt P03956)
T1 sequence (P03956 100-469): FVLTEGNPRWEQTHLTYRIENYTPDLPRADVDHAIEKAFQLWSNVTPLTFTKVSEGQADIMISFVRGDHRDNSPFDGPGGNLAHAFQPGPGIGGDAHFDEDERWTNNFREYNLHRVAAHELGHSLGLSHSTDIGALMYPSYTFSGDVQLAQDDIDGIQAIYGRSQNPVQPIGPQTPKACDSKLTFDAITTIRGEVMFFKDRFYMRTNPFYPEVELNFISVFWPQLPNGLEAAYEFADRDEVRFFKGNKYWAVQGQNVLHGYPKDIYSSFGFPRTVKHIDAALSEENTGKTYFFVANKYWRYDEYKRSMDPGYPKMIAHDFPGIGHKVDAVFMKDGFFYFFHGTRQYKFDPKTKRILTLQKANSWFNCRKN
Conditions: cited from earlier work

## CNC(=O)[C@H](Cc1ccc(OC)cc1)NC(=O)[C@H](CC(C)C)NC(CCNC(=O)OCc1ccccc1)C(=O)O (stereo partly drawn) [N-[3-(benzyloxy-carbonyl)amino-1-carboxy-n-propyl]-L-leucyl-O-methyl-L-tyrosine, N-methylamide]
  IC50: < 8 µM
